Measurements: PubChem BioAssay (NCI)
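48-hour exposure; five concentrations; linearly interpolated endpoints. TGI: total growth inhibition.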

Experiments:
Assay in all cases: growth of human tumour cells (NCI), 48 h
[1] = system: OVCAR-8 ovarian
[2] = system: SF-268 CNS
[3] = system: HOP-62 NSCLC
[4] = system: UO-31 renal
[5] = system: DMS 273 small cell lung
[6] = system: NCI-H460 lung
[7] = system: HOP-92 NSCLC
[8] = system: M19-MEL melanoma
[9] = system: SW-620 colon
[10] = system: KM12 colon
[11] = system: OVCAR-3 ovarian
[12] = system: BT-549 breast
[13] = system: MDA-MB-435
[14] = system: NCI-H522 lung
[15] = system: K-562 leukemia
[16] = system: MCF7 breast
[17] = system: SR leukemia
[18] = system: SF-539 CNS
[19] = system: SK-MEL-2 melanoma
[20] = system: T-47D breast
[21] = system: SNB-78 CNS
[22] = system: MDA-MB-231 breast
[23] = system: OVCAR-4 ovarian
[24] = system: 786-0 renal
[25] = system: HS 578T breast
[26] = system: SF-295 CNS
[27] = system: A549 NSCLC
[28] = system: DU-145 prostate
[29] = system: SK-OV-3 ovarian
[30] = system: TK-10 renal
[31] = system: IGROV1 ovarian
[32] = system: NCI-H226 lung
[33] = system: MDA-N
[34] = system: HT29 colon
[35] = system: HCT-116 colon
[36] = system: MALME-3M melanoma
[37] = system: NCI-H23 lung
[38] = system: CAKI-1 renal
[39] = system: LXFL 529 NSCLC
[40] = system: HL-60(TB) leukemia
[41] = system: DLD-1 colon
[42] = system: SK-MEL-5 melanoma
[43] = system: RPMI-8226 leukemia
[44] = system: KM20L2 colon
[45] = system: COLO 205 colon
[46] = system: UACC-257 melanoma
[47] = system: HCT-15 colon
[48] = system: LOX IMVI melanoma
[49] = system: SN12C renal
[50] = system: SNB-19 CNS
[51] = system: U251 CNS
[52] = system: SK-MEL-28 melanoma
[53] = system: UACC-62 melanoma
[54] = system: ACHN renal
[55] = system: OVCAR-5 ovarian
[56] = system: EKVX NSCLC
[57] = system: PC-3 prostate
[58] = system: MOLT-4 leukemia
[59] = system: CCRF-CEM leukemia
[60] = system: M14 melanoma
[61] = system: NCI/ADR-RES ovarian
[62] = system: HCC-2998 colon

Cc1ccc(C(=O)OCC(C)C)cc1N=NN(C)C
TGI [1]: > 100 µM | TGI [2]: > 100 µM | TGI [3]: > 100 µM | TGI [4]: > 100 µM | TGI [5]: > 100 µM | TGI [6]: > 100 µM | TGI [7]: > 100 µM | TGI [8]: > 100 µM | TGI [9]: > 100 µM | TGI [10]: > 100 µM | TGI [11]: 90.6 µM | TGI [12]: > 100 µM | TGI [13]: > 100 µM | TGI [14]: > 100 µM | TGI [15]: > 100 µM | TGI [16]: > 100 µM | TGI [17]: > 100 µM | TGI [18]: > 100 µM | TGI [19]: > 100 µM | TGI [20]: > 100 µM | TGI [21]: > 100 µM | TGI [22]: > 100 µM | TGI [23]: > 100 µM | TGI [24]: > 100 µM | TGI [25]: > 100 µM | TGI [26]: > 87.5 µM | TGI [27]: > 100 µM | TGI [28]: > 100 µM | TGI [29]: > 100 µM | TGI [30]: > 100 µM | TGI [31]: > 100 µM | TGI [32]: > 100 µM | TGI [33]: > 100 µM | TGI [34]: > 100 µM | TGI [35]: > 100 µM | TGI [36]: > 100 µM | TGI [37]: > 100 µM | TGI [38]: > 100 µM | TGI [39]: > 100 µM | TGI [40]: > 100 µM | TGI [41]: > 100 µM | TGI [42]: > 100 µM | TGI [43]: > 100 µM | TGI [44]: > 100 µM | TGI [45]: > 100 µM | TGI [46]: 71.1 µM | TGI [47]: > 100 µM | TGI [48]: > 85.2 µM | TGI [49]: > 100 µM | TGI [50]: > 100 µM | TGI [51]: > 100 µM | TGI [52]: > 100 µM | TGI [53]: > 100 µM | TGI [54]: > 100 µM | TGI [55]: > 100 µM | TGI [56]: > 100 µM | TGI [57]: > 100 µM | TGI [58]: > 100 µM | TGI [59]: > 100 µM | TGI [60]: > 100 µM | TGI [61]: > 100 µM | TGI [62]: > 100 µM
